Measurements reported in US8426447B2, “Spiro-tricyclic ring compounds as beta-secretase modulators and methods of use” (Amgen Inc., priority 2008, dated 2013).

Columns and labels:
[1] = target: T1, BACE1 (Homo sapiens, UniProt P56817); test: In Vitro BACE Cell-based Assay (HEK cell assay): Aβ40 in conditioned medium of cells stably expressing Amyloid Precursor Protein, sandwich ELISA; settings: read-out: HEK cell assay
Outline: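 Read-out is time-resolved fluorescence of Aβ40 in supernatant, captured by pAb40 and detected with biotinylated 6E10 plus Streptavidin-Europium. Cells stably expressing APP received compounds for 24 h over 10 concentrations starting at 100 μM or 10 μM, final DMSO 0.1%.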

[2] = system: amyloid beta peptide (A-beta) in cerebrospinal fluid and brain; test: In Vivo Inhibition of Beta-Secretase: reduction of A-beta levels in CSF and brain; settings: after 4 hrs, mouse or rat
Excerpt: Several animal models, including mouse, rat, dog, and monkey, may be used to screen for inhibition of beta-secretase activity in vivo following administration of a test compound sample. Animals used in this invention can be wild type, transgenic, or gene knockout animals. […] A separate group of animals receive 2% hydroxypropyl methylcellulose, 1% Tween80 alone, containing no test compound, and serve as a vehicle-control group. At the end of the test period, animals are sacrificed and brain tissues, plasma or cerebrospinal fluid are collected. […] Homogenates are centrifuged at 355,000 g, 4° C. for 30 minutes. CSF or brain supernatants are then analyzed for the presence of A-beta peptide by specific sandwich ELISA assays based on ECL (Electrochemiluminescence) technology. For example, rat Abeta40 is measured using biotinylated-4G8 (Signet) as a capture antibody and Fab40 (an in-house antibody specific to the C-terminal of Abeta40) as a detection antibody.

[3] = target: T1, BACE1; test: In Vitro Enzymatic BACE FRET (Fluorescence Resonance Energy Transfer) Assay; assay type: biochemical; settings: read-out: BACE1 FRET assay
Outline: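 Fluorescence read-out after Tris addition raises pH to neutrality and ends the reaction. Before that, a peptide substrate carrying fluorophore and quencher across the BACE cleavage site (50 nM) is incubated with enzyme for one hour at pH 4.2 in acetate containing 10% DMSO and sub-micellar genapol.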

[4] = HEK cell-based assay, Aβ40 in conditioned medium, IC50 class symbols
[5] = in vitro BACE FRET enzyme assay, IC50 class symbols

T1 sequence (P56817 46-501, species assumed): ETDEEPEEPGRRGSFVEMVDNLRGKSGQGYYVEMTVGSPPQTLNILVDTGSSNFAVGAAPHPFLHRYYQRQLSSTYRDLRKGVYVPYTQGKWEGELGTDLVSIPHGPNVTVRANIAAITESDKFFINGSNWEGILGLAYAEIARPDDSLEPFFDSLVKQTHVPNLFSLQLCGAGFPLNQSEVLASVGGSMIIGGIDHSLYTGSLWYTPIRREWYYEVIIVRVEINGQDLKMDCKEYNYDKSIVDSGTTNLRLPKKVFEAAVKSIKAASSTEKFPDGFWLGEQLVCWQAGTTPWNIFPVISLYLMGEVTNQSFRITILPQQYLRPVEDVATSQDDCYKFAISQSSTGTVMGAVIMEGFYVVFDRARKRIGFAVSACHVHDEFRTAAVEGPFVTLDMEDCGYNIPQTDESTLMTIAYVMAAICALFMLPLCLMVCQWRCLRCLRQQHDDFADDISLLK

## NC1=N[C@@]2(CO1)c1cc(-c3cc(Cl)ccc3F)ccc1Oc1ncc(C3=CCOCC3)cc12 [Example 296, (S)-7-(5-chloro-2-fluorophenyl)-3-(3,6-dihydro-2H-pyran-4-yl)-5′H-spiro[chromeno[2,3-b]pyridine-5,4′-oxazol]-2′-amine]
[1]; Table IV, class symbols
  IC50: < 0.1 µM
[2]; 10 mpk
  percent reduction in CSF A-beta levels: 61%
  percent reduction in brain A-beta levels: 40%
[3]; Table IV, class symbols
  IC50: < 0.1 µM

## CC1(C)CN(c2ccc3c(c2)[C@]2(COC(N)=N2)c2cc(-c4cccnc4)ccc2O3)CCO1 [Example 663, (4S)-2′-(2,2-dimethyl-4-morpholinyl)-7′-(3-pyridinyl)spiro[1,3-oxazole-4,9′-xanthen]-2-amine]
[1]; Table IV, class symbols
  IC50: < 0.1 µM
[2]; 30 mpk
  percent reduction in CSF A-beta levels: 57%
  percent reduction in brain A-beta levels: 44%
[3]; Table IV, class symbols
  IC50: < 0.1 µM

## CC(C)(C#N)COc1cc(F)c2c(c1)[C@]1(COC(N)=N1)c1cc(-c3cccnc3F)ccc1O2 [Example 287, (S)-3-(2-amino-5′-fluoro-2′-(2-fluoropyridin-3-yl)-5H-spiro[oxazole-4,9′-xanthene]-7′-yloxy)-2,2-dimethylpropanenitrile]
[1]; HEK cells
  IC50: < 0.1 µM
[2]; 10 mpk
  percent reduction in CSF A-beta levels: 48%
  percent reduction in brain A-beta levels: 32%
[3]
  IC50: < 0.1 µM

## CC(C)(C)/C=C/c1cc2c(cn1)Oc1ccc(-c3cncnc3)cc1[C@@]21COC(N)=N1 [Example 291, (S,E)-3-(3,3-dimethylbut-1-enyl)-7-(pyrimidin-5-yl)-5′H-spiro[chromeno[2,3-c]pyridine-5,4′-oxazol]-2′-amine]
[1]; HEK cells
  IC50: < 0.1 µM
[2]; 10 mpk
  percent reduction in CSF A-beta levels: 62%
  percent reduction in brain A-beta levels: 32%
[3]
  IC50: < 0.1 µM

## CC(C)(C)C#Cc1cnc2c(c1)[C@]1(COC(N)=N1)c1cc(-c3cccnc3)ccc1O2 [Example 185b, (5S)-3-(3,3-dimethyl-1-butyn-1-yl)-7-(3-pyridinyl)spiro[chromeno[2,3-b]pyridine-5,4′-[1,3]oxazol]-2′-amine]
[1]; Table III, IC50's in uM ranges
  IC50: < 0.1 µM
[2]; 30 mpk
  percent reduction in CSF A-beta levels: 72%
  percent reduction in brain A-beta levels: 58%
[3]; Table III, IC50's in uM ranges
  IC50: < 0.1 µM

## NC1=N[C@@]2(CO1)c1cc(-c3cccnc3F)ccc1Oc1ccc(N3CCOCC3)cc12 [Example 289, (S)-2′-(2-fluoropyridin-3-yl)-7′-morpholino-5H-spiro[oxazole-4,9′-xanthen]-2-amine 2,2,2-trifluoroacetate]
[1]; Table IV, class symbols
  IC50: < 0.1 µM
[2]; 10 mpk
  percent reduction in CSF A-beta levels: 49%
  percent reduction in brain A-beta levels: 23%
[2]; 30 mpk
  percent reduction in CSF A-beta levels: 69%
  percent reduction in brain A-beta levels: 52%
[3]; Table IV, class symbols
  IC50: < 0.1 µM

## CC1(C)C=C(c2ccc3c(c2)[C@]2(COC(N)=N2)c2cc(-c4cncnc4)ccc2O3)CCO1 [Example 689, (4R)-2′-(6,6-dimethyl-3,6-dihydro-2H-pyran-4-yl)-7′-(5-pyrimidinyl)spiro[1,3-oxazole-4,9′-xanthen]-2-amine]
[1]
  IC50: < 0.1 µM
[2]; 30 mpk
  percent reduction in CSF A-beta levels: 69%
  percent reduction in brain A-beta levels: 41%
[3]
  IC50: < 0.1 µM

## CC(C)(C)COc1cnc2c(c1)[C@]1(COC(N)=N1)c1cc(-c3cccnc3)ccc1O2 [Example 744, (5S)-3-(2,2-dimethylpropoxy)-7-(3-pyridinyl)spiro[chromeno[2,3-b]pyridine-5,4′-[1,3]oxazol]-2′-amine]
[2]; 10 mpk
  percent reduction in CSF A-beta levels: 37%
  percent reduction in brain A-beta levels: 26%

## CC(C)(C#N)COc1ccc2c(c1)[C@@]1(COC(N)=N1)c1cc(-c3ccccc3)cnc1O2 [Example 817, 3-(((5S)-2′-amino-3-phenylspiro[chromeno[2,3-b]pyridine-5,4′-[1,3]oxazol]-7-yl)oxy)-2,2-dimethylpropanenitrile]
[1]; Table IV, class symbols
  IC50: < 0.1 µM
[2]; 30 mpk
  percent reduction in CSF A-beta levels: 44%
  percent reduction in brain A-beta levels: 25%
[3]; Table IV, class symbols
  IC50: < 0.1 µM

## CC1(C)CN(c2cc3c(cn2)Oc2ccc(-c4cccnc4)cc2[C@@]32COC(N)=N2)CCO1 [Example 490, (5S)-3-(2,2-dimethyl-4-morpholinyl)-7-(3-pyridinyl)spiro[chromeno[2,3-c]pyridine-5,4′-[1,3]oxazol]-2′-amine]
[1]; HEK cells
  IC50: < 0.1 µM
[2]; 10 mpk
  percent reduction in CSF A-beta levels: 28%
  percent reduction in brain A-beta levels: 9%
[3]
  IC50: < 0.1 µM

## NC1=N[C@]2(CO1)c1cc(C#CC3(O)CCC3)ccc1Oc1ccc(-c3cncnc3)cc12 [Example 956, 1-(((4R)-2-amino-7′-(5-pyrimidinyl)spiro[1,3-oxazole-4,9′-xanthen]-2′-yl)ethynyl)cyclobutanol]
[1]
  IC50: < 0.1 µM
[2]; 30 mpk
  percent reduction in CSF A-beta levels: 25%
  percent reduction in brain A-beta levels: 8%
[3]
  IC50: < 0.1 µM

## NC1=NC2(CO1)c1cc(-c3cccnc3)ccc1Oc1c(F)cc(C3=CCOCC3)cc12 (stereo in doubt) [Example 297, (R)-2′-(3,6-dihydro-2H-pyran-4-yl)-4′-fluoro-7′-(pyridin-3-yl)-5H-spiro[oxazole-4,9′-xanthen]-2-amine]
[1]; Table IV, class symbols
  IC50: < 0.1 µM
[2]; 30 mpk
  percent reduction in CSF A-beta levels: 69%
  percent reduction in brain A-beta levels: 54%
[3]; Table IV, class symbols
  IC50: < 0.1 µM

## CC(C)(C)COc1ccc2c(c1)[C@@]1(COC(N)=N1)c1cc(-c3ccncc3)cnc1O2 [Example 808, (5S)-7-(2,2-dimethylpropoxy)-3-(4-pyridinyl)spiro[chromeno[2,3-b]pyridine-5,4′-[1,3]oxazol]-2′-amine]
[1]; Table IV, class symbols
  IC50: < 0.1 µM
[2]; 30 mpk
  percent reduction in CSF A-beta levels: 55%
  percent reduction in brain A-beta levels: 43%
[3]; Table IV, class symbols
  IC50: < 0.1 µM

## CC(C)(C)COc1ccc2c(c1)[C@]1(COC(N)=N1)c1cc(-c3cccc(S(C)(=O)=O)c3)ccc1O2 [compound 915]
[1]; Table IV, class symbols
  IC50: 1 to 5 µM
[3]; Table IV, class symbols
  IC50: < 0.1 µM

## N#Cc1ccccc1Oc1ccc2c(c1)[C@]1(COC(N)=N1)c1cc(-c3cncnc3)ccc1O2 [compound 965]
[1]
  IC50: > 5 µM
[3]
  IC50: 0.1 to 1 µM

## CC(C)(F)COc1cc2c(cc1F)Oc1ccc(-c3cccnc3)cc1[C@@]21COC(N)=N1 [compound 353, (4S)-3′-fluoro-2′-(2-fluoro-2-methylpropoxy)-7′-(3-pyridinyl)spiro[1,3-oxazole-4,9′-xanthen]-2-amine]
[1]; [4]
  IC50: < 0.1 µM
[3]; [5]
  IC50: < 0.1 µM

## COc1ccc2c(c1)[C@]1(COC(N)=N1)c1cc(NC(=O)C3CCCO3)ccc1O2 (stereo partly drawn) [compound 614]
[1]; Table IV, class symbols
  IC50: 0.1 to 1 µM
[3]; Table IV, class symbols
  IC50: 0.1 to 1 µM

## NC1=N[C@@]2(CO1)c1cc(-c3cccnc3)ccc1Oc1ccc(-c3cnoc3)cc12 [compound 623]
[1]; Table IV, class symbols
  IC50: < 0.1 µM
[3]; Table IV, class symbols
  IC50: < 0.1 µM

## CC1(C)CN(c2cc(F)c3c(c2)[C@@]2(COC(N)=N2)c2cc(-c4cncnc4)ccc2O3)CCO1 [compound 506]
[1]; HEK cells
  IC50: 1 to 5 µM
[3]
  IC50: 0.1 to 1 µM

## NC1=N[C@]2(CO1)c1cc(C3=CCSCC3)ccc1Oc1ccc(-c3cncnc3)cc12 [compound 831]
[1]; Table IV, class symbols
  IC50: < 0.1 µM
[3]; Table IV, class symbols
  IC50: < 0.1 µM

## COC(C)(C)C#Cc1ccc2c(c1)[C@@]1(COC(N)=N1)c1cc(-c3ccc(C)cc3)cnc1O2 [compound 577]
[1]; Table IV, class symbols
  IC50: < 0.1 µM
[3]; Table IV, class symbols
  IC50: < 0.1 µM

## CON(C)C(=O)COc1ccc2c(c1)[C@]1(COC(N)=N1)c1cc(-c3cccnc3)ccc1O2 [compound 788]
[1]
  IC50: 1 to 5 µM
[3]
  IC50: 1 to 5 µM

## COCC(=O)Nc1ccc2c(c1)[C@@]1(COC(N)=N1)c1cc(-c3ccccc3)ccc1O2 [compound 533]
[1]; Table IV, class symbols
  IC50: < 0.1 µM
[3]; Table IV, class symbols
  IC50: < 0.1 µM

## CN1CCN(c2ccc3c(c2)[C@@]2(COC(N)=N2)c2cc(OCC(C)(C)C)ccc2O3)CC1 [compound 812]
[1]; Table IV, class symbols
  IC50: 0.1 to 1 µM
[3]; Table IV, class symbols
  IC50: 1 to 5 µM

## COC(=O)/C=C/c1ccc2c(c1)[C@]1(COC(N)=N1)c1cc(-c3cncnc3)ccc1O2 [compound 993]
[1]
  IC50: 0.1 to 1 µM
[3]
  IC50: < 0.1 µM

## CC(C)(O)C#Cc1cnc2c(c1)[C@@]1(COC(N)=N1)c1cc(-c3ccccc3)ccc1O2 [compound 709]
[1]
  IC50: > 5 µM
[3]
  IC50: 1 to 5 µM

## CC(C)(C)COc1ccc2c(c1)[C@@]1(COC(N)=N1)c1cc(C#N)ccc1O2 [compound 990]
[1]
  IC50: 1 to 5 µM
[3]
  IC50: 0.1 to 1 µM

## NC1=N[C@@]2(CO1)c1cc(Br)ccc1Oc1ccc(Cl)nc12 [compound 855]
[1]; Table IV, class symbols
  IC50: > 5 µM
[3]; Table IV, class symbols
  IC50: > 5 µM

## CC(C)(C)CC(=O)c1ccc2c(c1)[C@]1(COC(N)=N1)c1cc(-c3ccc(F)nc3)ccc1O2 [150a]
[1]; Table III, IC50's in uM ranges
  IC50: 0.1 to 1 µM
[3]; Table III, IC50's in uM ranges
  IC50: < 0.1 µM

## COc1ccc2c(c1)C1(COC(N)=N1)c1cc(-c3cccc(OC)c3F)ccc1O2 (stereo not drawn) [Example 17, 2′-(2-fluoro-3-methoxyphenyl)-7′-methoxyspiro[1,3-oxazole-4,9′-xanthen]-2-amine]
[1]; Table 1, Aβ40, 24 h incubation
  IC50: 1 to 5 µM
[3]; Table 1
  IC50: 1 to 5 µM

## CC(C)(C)C#Cc1ccc2c(c1)[C@]1(COC(N)=N1)c1cc(Cl)ncc1O2 [compound 846]
[1]; Table IV, class symbols
  IC50: > 5 µM
[3]; Table IV, class symbols
  IC50: 1 to 5 µM

## N#Cc1ccccc1-c1ccc2c(c1)[C@]1(COC(N)=N1)c1cc(-c3cccnc3)ccc1O2 [compound 962]
[1]
  IC50: 0.1 to 1 µM
[3]
  IC50: < 0.1 µM

## CC(=O)c1ccccc1-c1ccc2c(c1)[C@@]1(COC(N)=N1)c1cc(OCC(C)(C)C)ccc1O2 [compound 974]
[1]
  IC50: 1 to 5 µM
[3]
  IC50: 0.1 to 1 µM

## Cc1cncc(-c2ccc3c(c2)[C@@]2(COC(N)=N2)c2cc(C4=CCOCC4)ncc2O3)c1 [compound 326]
[1]; [4]
  IC50: < 0.1 µM
[3]; [5]
  IC50: < 0.1 µM

## NC1=N[C@]2(CO1)c1cc(OC3COC3)ccc1Oc1ccc(-c3cncnc3)cc12 [compound 776]
[1]
  IC50: 0.1 to 1 µM
[3]
  IC50: 0.1 to 1 µM
